Source: ChEMBL document CHEMBL5154740, “Novel Aurora A and Protein Kinase C (α, β1, β2, and θ) Multitarget Inhibitors: Impact of Selenium Atoms on the Potency and Selectivity” (J Med Chem, 2022)

Key:
[1] = target: Cell division control protein 42 homolog (Homo sapiens) (UniProt P60953); experiment: Inhibition of CDC42 delta (unknown origin) at 50 nM by Z'LYTE screening method relative to control
[2] = target: CDK1/Cyclin A (Homo sapiens) (UniProt P06493+P20248); experiment: Inhibition of CDK1/CyclinA (unknown origin) at 50 nM by Z'LYTE screening method relative to control; format: protein-complex assay
[3] = target: T1, Eukaryotic elongation factor 2 kinase (Homo sapiens) (UniProt O00418); experiment: Inhibition of EEF2K (unknown origin) at 50 nM by Z'LYTE screening method relative to control
T1 sequence (whole entry): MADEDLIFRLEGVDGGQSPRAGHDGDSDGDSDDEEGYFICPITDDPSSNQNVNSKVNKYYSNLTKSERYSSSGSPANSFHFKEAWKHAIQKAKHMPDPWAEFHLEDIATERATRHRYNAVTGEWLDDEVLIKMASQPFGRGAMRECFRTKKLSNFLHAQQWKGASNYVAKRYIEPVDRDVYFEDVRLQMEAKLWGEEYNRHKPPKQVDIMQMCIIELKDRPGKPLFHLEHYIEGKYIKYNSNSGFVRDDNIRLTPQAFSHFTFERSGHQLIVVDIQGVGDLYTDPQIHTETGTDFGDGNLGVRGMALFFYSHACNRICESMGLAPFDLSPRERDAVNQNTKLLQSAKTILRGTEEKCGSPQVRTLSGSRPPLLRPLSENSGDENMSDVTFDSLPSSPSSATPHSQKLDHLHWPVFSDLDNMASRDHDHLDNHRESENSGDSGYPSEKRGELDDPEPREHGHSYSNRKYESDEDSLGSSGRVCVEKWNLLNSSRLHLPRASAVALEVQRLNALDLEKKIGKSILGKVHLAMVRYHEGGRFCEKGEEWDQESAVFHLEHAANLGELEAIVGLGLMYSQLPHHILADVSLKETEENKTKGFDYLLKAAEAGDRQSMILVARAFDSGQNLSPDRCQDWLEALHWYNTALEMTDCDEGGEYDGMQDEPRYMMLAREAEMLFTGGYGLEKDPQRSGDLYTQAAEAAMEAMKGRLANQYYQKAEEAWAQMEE

[4] = target: Fibroblast growth factor receptor 1 (Homo sapiens) (UniProt P11362); experiment: Inhibition of FGFR1 (unknown origin) at 50 nM by Z'LYTE screening method relative to control
[5] = target: Serine/threonine-protein kinase mTOR (Homo sapiens) (UniProt P42345); experiment: Inhibition of FRAP1 (unknown origin) at 50 nM by Z'LYTE screening method relative to control
[6] = target: Protein kinase C alpha type (Homo sapiens) (UniProt P17252); experiment: Inhibition of PKCalpha (unknown origin) at 50 nM by Z'LYTE screening method relative to control
[7] = target: Serine/threonine-protein kinase PAK 1 (Homo sapiens) (UniProt Q13153); experiment: Inhibition of PAK1 (unknown origin) at 50 nM by Z'LYTE screening method relative to control
4T1 = experiment: Cytotoxicity against mouse 4T1 cells assessed as reduction in cell viability incubated for 96 hrs by MTT assay; format: functional, cell-based; details: 4T1, 96 h
[8] = target: Mitogen-activated protein kinase 1 (Homo sapiens) (UniProt P28482); experiment: Inhibition of MAPK1 (unknown origin) at 50 nM by Z'LYTE screening method relative to control
[9] = target: T2, Aurora kinase C (Homo sapiens) (UniProt Q9UQB9); experiment: Inhibition of AURC (unknown origin) at 50 nM by Z'LYTE screening method relative to control
T2 sequence (whole entry): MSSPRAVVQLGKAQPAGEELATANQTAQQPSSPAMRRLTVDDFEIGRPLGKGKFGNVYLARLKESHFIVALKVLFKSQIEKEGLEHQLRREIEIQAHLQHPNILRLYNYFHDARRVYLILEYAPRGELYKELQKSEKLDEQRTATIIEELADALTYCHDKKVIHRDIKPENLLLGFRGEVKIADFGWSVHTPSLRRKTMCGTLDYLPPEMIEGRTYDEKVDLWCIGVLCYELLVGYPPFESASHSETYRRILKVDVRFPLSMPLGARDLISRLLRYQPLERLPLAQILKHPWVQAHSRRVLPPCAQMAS

[10] = target: Mitogen-activated protein kinase 11 (Homo sapiens) (UniProt Q15759); experiment: Inhibition of MAPK11 (unknown origin) at 50 nM by Z'LYTE screening method relative to control
[11] = target: T3, Protein kinase C epsilon type (Homo sapiens) (UniProt Q02156); experiment: Inhibition of PKCepsilon (unknown origin) at 50 nM by Z'LYTE screening method relative to control
T3 sequence (whole entry): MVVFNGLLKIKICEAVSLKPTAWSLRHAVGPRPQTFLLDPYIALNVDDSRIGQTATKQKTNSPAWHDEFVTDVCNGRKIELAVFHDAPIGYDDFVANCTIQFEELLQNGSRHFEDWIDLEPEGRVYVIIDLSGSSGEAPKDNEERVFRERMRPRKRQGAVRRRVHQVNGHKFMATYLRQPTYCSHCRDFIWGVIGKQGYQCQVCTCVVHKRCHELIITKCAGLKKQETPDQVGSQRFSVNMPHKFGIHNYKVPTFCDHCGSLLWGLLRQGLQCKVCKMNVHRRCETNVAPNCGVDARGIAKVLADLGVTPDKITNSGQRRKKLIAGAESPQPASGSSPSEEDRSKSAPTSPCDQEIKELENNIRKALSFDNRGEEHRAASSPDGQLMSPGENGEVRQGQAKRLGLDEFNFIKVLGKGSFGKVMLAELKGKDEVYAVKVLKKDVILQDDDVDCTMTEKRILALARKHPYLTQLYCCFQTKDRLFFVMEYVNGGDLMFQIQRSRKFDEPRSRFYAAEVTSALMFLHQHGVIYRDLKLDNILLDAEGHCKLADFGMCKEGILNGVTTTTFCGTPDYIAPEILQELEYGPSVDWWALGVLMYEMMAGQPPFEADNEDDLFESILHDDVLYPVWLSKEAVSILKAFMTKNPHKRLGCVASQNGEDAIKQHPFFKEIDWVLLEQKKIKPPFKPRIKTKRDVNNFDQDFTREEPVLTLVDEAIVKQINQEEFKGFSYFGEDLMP

[12] = target: Focal adhesion kinase 1 (Homo sapiens) (UniProt Q05397); experiment: Inhibition of FAK (unknown origin) at 50 nM by Z'LYTE screening method relative to control
[13] = target: Ribosomal protein S6 kinase alpha-1 (Homo sapiens) (UniProt Q15418); experiment: Inhibition of RPS6KA1 (unknown origin) at 50 nM by Z'LYTE screening method relative to control
[14] = target: Tyrosine-protein kinase Yes (Homo sapiens) (UniProt P07947); experiment: Inhibition of YES1 (unknown origin) at 50 nM by Z'LYTE screening method relative to control
Chain of Tyrosine-protein kinase Yes (Homo sapiens) (P07947 2-543 limits assumed): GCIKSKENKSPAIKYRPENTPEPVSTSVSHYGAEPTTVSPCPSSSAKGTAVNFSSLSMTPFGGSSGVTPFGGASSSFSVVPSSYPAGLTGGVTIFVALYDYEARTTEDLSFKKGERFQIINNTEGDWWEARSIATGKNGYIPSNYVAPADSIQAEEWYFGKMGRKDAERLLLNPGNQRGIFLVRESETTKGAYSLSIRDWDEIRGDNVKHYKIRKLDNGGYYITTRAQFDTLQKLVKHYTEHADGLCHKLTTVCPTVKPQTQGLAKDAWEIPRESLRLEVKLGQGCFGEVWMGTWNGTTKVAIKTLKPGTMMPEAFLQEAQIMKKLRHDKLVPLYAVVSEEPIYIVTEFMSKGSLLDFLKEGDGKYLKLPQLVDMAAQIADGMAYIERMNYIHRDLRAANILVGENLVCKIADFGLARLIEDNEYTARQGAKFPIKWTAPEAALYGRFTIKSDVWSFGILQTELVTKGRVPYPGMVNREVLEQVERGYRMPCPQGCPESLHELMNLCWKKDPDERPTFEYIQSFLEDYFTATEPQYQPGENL

Chain of Focal adhesion kinase 1 (Homo sapiens) (Q05397 2-1052 limits assumed): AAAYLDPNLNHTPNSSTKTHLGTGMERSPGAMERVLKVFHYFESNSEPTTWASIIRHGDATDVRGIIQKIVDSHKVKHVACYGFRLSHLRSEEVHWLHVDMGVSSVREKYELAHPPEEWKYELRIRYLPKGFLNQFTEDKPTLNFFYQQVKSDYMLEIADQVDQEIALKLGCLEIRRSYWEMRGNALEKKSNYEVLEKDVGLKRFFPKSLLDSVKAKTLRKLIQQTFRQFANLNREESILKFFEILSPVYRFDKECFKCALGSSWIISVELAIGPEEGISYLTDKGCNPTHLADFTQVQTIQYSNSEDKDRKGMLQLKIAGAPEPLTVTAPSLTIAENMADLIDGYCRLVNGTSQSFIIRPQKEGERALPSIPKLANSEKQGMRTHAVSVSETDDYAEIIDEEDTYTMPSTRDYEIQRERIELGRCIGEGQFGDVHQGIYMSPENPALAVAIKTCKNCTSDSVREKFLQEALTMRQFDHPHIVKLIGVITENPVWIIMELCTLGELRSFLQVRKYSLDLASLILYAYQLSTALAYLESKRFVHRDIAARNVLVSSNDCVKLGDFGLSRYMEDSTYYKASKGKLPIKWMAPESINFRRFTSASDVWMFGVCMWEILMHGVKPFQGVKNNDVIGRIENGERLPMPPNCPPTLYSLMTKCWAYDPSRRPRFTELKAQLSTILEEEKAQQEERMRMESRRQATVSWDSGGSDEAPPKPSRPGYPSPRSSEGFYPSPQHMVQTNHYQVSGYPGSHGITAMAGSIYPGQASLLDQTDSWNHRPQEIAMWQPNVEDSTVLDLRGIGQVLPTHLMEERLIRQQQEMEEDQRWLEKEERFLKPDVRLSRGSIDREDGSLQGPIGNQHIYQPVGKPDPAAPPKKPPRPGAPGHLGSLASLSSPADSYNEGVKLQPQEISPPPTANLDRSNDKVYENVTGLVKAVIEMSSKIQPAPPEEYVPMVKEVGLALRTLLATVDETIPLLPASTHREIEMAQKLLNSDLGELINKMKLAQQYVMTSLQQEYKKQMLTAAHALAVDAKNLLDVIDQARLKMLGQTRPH
Chain of Fibroblast growth factor receptor 1 (Homo sapiens) (P11362 22-822 limits assumed): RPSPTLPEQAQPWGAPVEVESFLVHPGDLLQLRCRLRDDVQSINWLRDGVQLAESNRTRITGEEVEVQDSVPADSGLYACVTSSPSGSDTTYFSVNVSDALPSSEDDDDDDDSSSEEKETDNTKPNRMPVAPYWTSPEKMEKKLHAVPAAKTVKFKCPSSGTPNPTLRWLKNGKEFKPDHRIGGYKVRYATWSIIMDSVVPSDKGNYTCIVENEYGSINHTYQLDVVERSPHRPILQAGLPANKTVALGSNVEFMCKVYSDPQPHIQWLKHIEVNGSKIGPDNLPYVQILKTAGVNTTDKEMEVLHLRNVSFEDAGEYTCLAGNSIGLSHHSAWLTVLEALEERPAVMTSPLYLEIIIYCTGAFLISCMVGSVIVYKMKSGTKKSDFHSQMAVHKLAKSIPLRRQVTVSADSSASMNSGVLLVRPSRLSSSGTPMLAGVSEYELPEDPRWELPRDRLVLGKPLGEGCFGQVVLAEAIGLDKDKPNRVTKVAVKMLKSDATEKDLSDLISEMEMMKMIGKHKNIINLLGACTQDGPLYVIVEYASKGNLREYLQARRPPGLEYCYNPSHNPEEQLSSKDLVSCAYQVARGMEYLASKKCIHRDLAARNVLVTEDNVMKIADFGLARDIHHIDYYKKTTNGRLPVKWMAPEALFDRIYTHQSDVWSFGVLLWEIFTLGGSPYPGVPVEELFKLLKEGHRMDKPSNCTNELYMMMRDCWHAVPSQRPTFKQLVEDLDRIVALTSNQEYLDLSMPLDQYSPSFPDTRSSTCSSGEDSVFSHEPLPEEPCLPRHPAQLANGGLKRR
Chain of Mitogen-activated protein kinase 11 (Homo sapiens) (Q15759 whole entry): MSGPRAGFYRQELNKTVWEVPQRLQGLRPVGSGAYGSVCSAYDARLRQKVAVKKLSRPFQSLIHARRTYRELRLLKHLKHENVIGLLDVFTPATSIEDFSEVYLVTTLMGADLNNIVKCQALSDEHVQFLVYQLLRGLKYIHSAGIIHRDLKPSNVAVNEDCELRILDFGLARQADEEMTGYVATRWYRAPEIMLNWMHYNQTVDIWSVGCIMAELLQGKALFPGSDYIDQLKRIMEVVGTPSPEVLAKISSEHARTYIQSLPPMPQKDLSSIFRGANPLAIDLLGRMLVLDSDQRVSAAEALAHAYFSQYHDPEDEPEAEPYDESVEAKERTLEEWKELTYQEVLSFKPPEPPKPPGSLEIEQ
Chain of Ribosomal protein S6 kinase alpha-1 (Homo sapiens) (Q15418 whole entry): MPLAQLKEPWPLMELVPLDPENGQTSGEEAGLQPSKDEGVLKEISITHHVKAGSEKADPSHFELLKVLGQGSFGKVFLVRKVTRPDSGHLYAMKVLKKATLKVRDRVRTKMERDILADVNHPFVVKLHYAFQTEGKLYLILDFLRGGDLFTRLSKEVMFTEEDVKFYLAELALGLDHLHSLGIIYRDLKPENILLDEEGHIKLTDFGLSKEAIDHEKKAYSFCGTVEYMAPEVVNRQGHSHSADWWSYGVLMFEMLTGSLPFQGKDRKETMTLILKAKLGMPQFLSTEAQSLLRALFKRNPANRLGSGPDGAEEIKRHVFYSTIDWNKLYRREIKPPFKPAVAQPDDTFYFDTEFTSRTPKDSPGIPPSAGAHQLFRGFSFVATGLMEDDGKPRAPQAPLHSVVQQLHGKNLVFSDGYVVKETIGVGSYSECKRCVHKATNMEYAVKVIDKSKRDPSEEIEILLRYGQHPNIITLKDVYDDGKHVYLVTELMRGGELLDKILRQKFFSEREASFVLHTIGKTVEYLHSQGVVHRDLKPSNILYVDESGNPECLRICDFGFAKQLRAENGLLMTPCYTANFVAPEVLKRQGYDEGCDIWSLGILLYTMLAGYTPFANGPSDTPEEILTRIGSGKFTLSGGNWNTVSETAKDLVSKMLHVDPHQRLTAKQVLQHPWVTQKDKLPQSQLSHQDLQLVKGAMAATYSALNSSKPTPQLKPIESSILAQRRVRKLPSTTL
Chain of Mitogen-activated protein kinase 1 (Homo sapiens) (P28482 whole entry): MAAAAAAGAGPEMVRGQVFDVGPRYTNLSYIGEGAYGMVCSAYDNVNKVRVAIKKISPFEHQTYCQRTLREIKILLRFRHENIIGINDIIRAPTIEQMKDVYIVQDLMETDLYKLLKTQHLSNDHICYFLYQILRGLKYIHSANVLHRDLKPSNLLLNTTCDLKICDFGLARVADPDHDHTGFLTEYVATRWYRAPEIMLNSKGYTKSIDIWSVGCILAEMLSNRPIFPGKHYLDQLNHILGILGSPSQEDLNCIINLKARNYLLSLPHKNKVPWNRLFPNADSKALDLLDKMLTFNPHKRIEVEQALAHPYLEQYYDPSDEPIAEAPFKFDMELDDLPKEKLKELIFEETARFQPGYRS
Chain of Cell division control protein 42 homolog (Homo sapiens) (P60953 whole entry, looked up): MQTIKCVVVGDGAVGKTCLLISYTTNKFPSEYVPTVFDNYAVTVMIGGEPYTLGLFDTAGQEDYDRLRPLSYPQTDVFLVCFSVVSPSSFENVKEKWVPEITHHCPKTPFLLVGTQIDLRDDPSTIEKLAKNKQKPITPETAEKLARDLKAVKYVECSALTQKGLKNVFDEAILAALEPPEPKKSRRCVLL

Row | SMILES | inhibition [1] | inhibition [2] | inhibition [3] | inhibition [4] | inhibition [5] | inhibition [6] | inhibition [7] | inhibition [8] | inhibition [9] | inhibition [10] | inhibition [11] | inhibition [12] | inhibition [13] | inhibition [14] | IC50 (4T1)
1 | O=c1c2ccccc2[se]n1-c1nc(N[C@H]2CC[Se]C2)c2nc[nH]c2n1 | 0% | 0% | 2% | 0% | 0% | 100% | 0% | 9% | 0% | 9% | 5% | 0% | 5% | 10% | 0.8 µM
2 | O=c1c2ccccc2[se]n1-c1nc(Nc2ccccc2)c2nc[nH]c2n1 | 0% | 2% | 1% | 0% | 0% | 18% | 0% | 1% | 6% | 2% | 0% | 0% | 0% | 8% | 15.2 µM
3 | O=C1c2ccccc2CN1c1nc(N[C@H]2CC[Se]C2)c2nc[nH]c2n1 | 0% | 1% | 2% | 0% | 2% | 3% | 0% | 0% | 13% | 3% | 2% | 0% | 0% | 12% | 27.2 µM
4 | CCCNc1nc(-n2[se]c3ccccc3c2=O)nc2[nH]cnc12 | 1% | 2% | 0% | 0% | 0% | 17% | 1% | 1% | 6% | 4% | 6% | 0% | 0% | 3% | 11.3 µM
5 | O=c1c2ccccc2[se]n1-c1nc(N[C@H]2CCOC2)c2nc[nH]c2n1 | 0% | 1% | 2% | 0% | 1% | 91% | 0% | 2% | 1% | 3% | 0% | 0% | 5% | 6% | 1.8 µM
6 | C[C@@H]1[C@H]2C[C@@H](C[C@H]1Nc1nc(-n3[se]c4ccccc4c3=O)nc3[nH]cnc13)C2(C)C | 0% | 2% | 2% | 0% | 1% | 10% | 1% | 1% | 11% | 4% | 2% | 0% | 0% | 7% | 33.6 µM
7 | CCN(CC)CCCC(C)Nc1nc(-n2[se]c3ccccc3c2=O)nc2[nH]cnc12 (stereo not given) | 0% | 3% | 0% | 0% | 2% | 18% | 14% | 0% | 7% | 3% | 8% | 4% | 0% | 15% | 15.2 µM

Now from value to compound, other results behind:

Row | inhibition [1] | inhibition [2] | inhibition [3] | inhibition [4] | inhibition [5] | inhibition [6] | inhibition [7] | inhibition [8] | inhibition [9] | inhibition [10] | inhibition [11] | inhibition [12] | inhibition [13] | inhibition [14] | SMILES | IC50 (4T1)
8 | 0% | 3% | 1% | 0% | 0% | 68% | 0% | 0% | 13% | 3% | 6% | 0% | 2% | 38% | O=c1c2ccccc2[se]n1-c1nc(NC2CCCCC2)c2nc[nH]c2n1 | 8.1 µM
9 | 0% | 0% | 2% | 0% | 2% | 0% | 0% | 0% | 1% | 0% | 0% | 0% | 1% | 1% | O=C1c2ccccc2CN1c1nc(NC2CCCC2)c2nc[nH]c2n1 | 16.7 µM
10 | 0% | 1% | 2% | 0% | 0% | 8% | 1% | 0% | 9% | 4% | 2% | 0% | 0% | 9% | O=c1c2ccccc2[se]n1-c1nc(N[C@@H]2C[C@H]3CC[C@@H]2C3)c2nc[nH]c2n1 | 31.8 µM
11 | 0% | 1% | 1% | 0% | 0% | 3% | 2% | 2% | 10% | 3% | 4% | 0% | 0% | 9% | CCN(CC)CCCC(C)Nc1nc(N2Cc3ccccc3C2=O)nc2[nH]cnc12 (stereo not given) | 13.3 µM
12 | 0% | 2% | 1% | 0% | 0% | 14% | 0% | 2% | 9% | 1% | 4% | 0% | 2% | 5% | O=C1c2ccccc2CN1c1nc(NC2CCCCC2)c2nc[nH]c2n1 | 24.8 µM
